# According to patent US4782151A, “Polyprenyl compound and pharmaceutical use” (Eisai Co., Ltd., priority 1984, dated 1988):
# Columns and labels:
# Pyloric Ligation Ulcer = test: Effect on Pyloric Ligation Ulcer; format: in vivo, Wistar strain male rats; design: key to Grade Index G.I. mean ± S.E.: ulcer grade 0–V by eye; larger = more ulcers, V = perforation
# Protocol: According to the method of Shay et al. described in Gastroenterology, Vol 5, p. 43 (1945), Wistar strain male rats each weighing about 300 g were not given any diet for 48 hours, and then their pyloric segments were ligated. After 15 hours, the abdomen of each of the rats was opened, and the stomach was excised. The stomach was cut open along the side of the greater curvature, and the ulcers developed on the fore-stomach were classified and evaluated with the naked eye into five stages. The larger ulcer index means the more ulcers and index V refers to an example of perforation. The medicines were evaluated by determining their mean ±standard error. […] Cimetidine and propantheline were selected as control medicines.
# (Note) In Table 2, Grade Index was evaluated on the basis of the size,
# number, and severity of ulcers.
# gastric acid secretion = test: Gastric acid secretion inhibiting effect (pylorus-ligated rats, method of Shay); format: in vivo, Wistar strain male rats; conditions: for inhibition in vivo at 100 mg/kg: Rattus norvegicus, 100 mg/μg (so in the source), to the duodenum during pyloric ligation, 4 hours, vs control group
# Protocol: According to the method of H. Shay et a. described in Gastroenterology, Vol. 5, p. 43 (1945), Wistar strain male rats each weighing about 200 g were not given any diet for 24 hours, and their pyloric segments were ligated under etherization. After four hours, the stomachs were excised under deep etherization, and the contents of the stomachs were collected. After determination of the amount, the gastric juice was centrifuged at 3,000 rpm for 10 minutes and the supernatant liquid was titrated by neutralization (at a pH 7.0) with N/50-NaOH by means of an automatic titrator (TTA 81, Radiometer, Copenhagen) to determine the acidity. The amount of the acid which had been secreted for four hours was calculated from the volume of the gastric juice and the acidity. The results are represented in terms of % inhibition with respect to the control group. Each of the compounds tested was emulsified in a 25% decaglyn mixture (polyglycerin fatty acid ester), and 100 mg/μg (dose 0.2 ml/100 g weight) was administered to the duodenum during the ligation of the pyloric segment. In the control group, only the solvent was administered.
# Ethanol-Induced Ulcer = test: Effect on Ethanol-Induced Ulcer; format: in vivo, Wistar male rats
# Protocol: According to the method of Robert et al., 1 ml/rat of absolute ethanol was administered orally to each of Wistar male rats. After one hour, the stomach of each rat was excised, 10 ml of physiologically saline solution was injected into the stomach, and the stomach was soaked in 5% neutral formalin. Each stomach was cut open along the side of the greater curvature, and the ulcers developed on the glandular stomach were measured for their lengths and the total sum of the lengths was defined as ulcer index.
# Compound B, i.e. N-(2,6,10,14-tetramethyl-18-oxo-2,6,10,14-nonadecatetraenoyl)diethylamine,and compound F, i.e. N-(2,6,10,14-tetramethyl-18-oxo-2,6,10,14-nonadecatetraenoyl)pyrrolidine, were selected as test compounds and emulsified in 2.5% decaglyn mixture, and 12.5 to 100 mg/kg (dose volume 0.2 ml/100 g-weight) was administered orally 30 minutes before administration of ethanol.
# in vivo = conditions: mouse, po
# [1] = 100 mg/kg, 15 hours after pylorus ligation
# [2] = 100 mg/kg, N 4 (Compound B), N 10 (Cimetidine)
# [3] = 12.5 mg/kg orally 30 minutes before ethanol
# [4] = 25 mg/kg orally 30 minutes before ethanol
# [5] = 50 mg/kg orally 30 minutes before ethanol
# [6] = 100 mg/kg orally 30 minutes before ethanol
compound,measurement,setting,value
"CN/C(=N/CCSCc1nc[nH]c1C)NC#N [Cimetidine, reference compound]",Grade Index G.I. mean ± S.E.,Pyloric Ligation Ulcer; [1],3.3 ± 0.7
same,Grade Index 0 (number of animals),Pyloric Ligation Ulcer; [2],2
same,Grade Index I (number of animals),Pyloric Ligation Ulcer; [2],0
same,Grade Index II (number of animals),Pyloric Ligation Ulcer; [2],1
same,Grade Index III (number of animals),Pyloric Ligation Ulcer; [2],2
same,Grade Index IV (number of animals),Pyloric Ligation Ulcer; [2],0
same,Grade Index V (number of animals; perforation),Pyloric Ligation Ulcer; [2],5
CC(=O)CCC=C(C)CCC=C(C)CCC=C(C)CCC=C(C)C(=O)N1CCOCC1 [Compound A],inhibition in vivo at 100 mg/kg,gastric acid secretion,52.9%
"CCN(CC)C(=O)C(C)=CCCC(C)=CCCC(C)=CCCC(C)=CCCC(C)=O [Compound B, N-(2,6,10,14-tetramethyl-18-oxo-2,6,10,14-nonadecatetraenoyl)diethylamine]",inhibition in vivo at 100 mg/kg,gastric acid secretion,83.5%
same,action of inhibiting acid secretion (in words),"gastric acid secretion; rat, in vivo",powerful action of inhibiting acid secretion
same,Grade Index 0 (number of animals),"Pyloric Ligation Ulcer; 25 mg/kg, N 6",2
same,Grade Index I (number of animals),"Pyloric Ligation Ulcer; 25 mg/kg, N 6",1
same,Grade Index II (number of animals),"Pyloric Ligation Ulcer; 25 mg/kg, N 6",2
same,Grade Index III (number of animals),"Pyloric Ligation Ulcer; 25 mg/kg, N 6",0
same,Grade Index IV (number of animals),"Pyloric Ligation Ulcer; 25 mg/kg, N 6",0
same,Grade Index V (number of animals; perforation),"Pyloric Ligation Ulcer; 25 mg/kg, N 6",1
same,Grade Index G.I. mean ± S.E.,"Pyloric Ligation Ulcer; 25 mg/kg, to the duodenum during pylorus ligation, 15 hours",1.7 ± 0.7
same,Grade Index 0 (number of animals),"Pyloric Ligation Ulcer; 50 mg/kg, N 6",2
same,Grade Index I (number of animals),"Pyloric Ligation Ulcer; 50 mg/kg, N 6",3
same,Grade Index II (number of animals),"Pyloric Ligation Ulcer; 50 mg/kg, N 6",0
same,Grade Index III (number of animals),"Pyloric Ligation Ulcer; 50 mg/kg, N 6",0
same,Grade Index IV (number of animals),"Pyloric Ligation Ulcer; 50 mg/kg, N 6",0
same,Grade Index V (number of animals; perforation),"Pyloric Ligation Ulcer; 50 mg/kg, N 6",1
same,Grade Index G.I. mean ± S.E.,"Pyloric Ligation Ulcer; 50 mg/kg, to the duodenum during pylorus ligation, 15 hours",1.3 ± 0.8
same,Grade Index G.I. mean ± S.E.,Pyloric Ligation Ulcer; [1],0.0 ± 0.0
same,Grade Index 0 (number of animals),Pyloric Ligation Ulcer; [2],4
same,Grade Index I (number of animals),Pyloric Ligation Ulcer; [2],0
same,Grade Index II (number of animals),Pyloric Ligation Ulcer; [2],0
same,Grade Index III (number of animals),Pyloric Ligation Ulcer; [2],0
same,Grade Index IV (number of animals),Pyloric Ligation Ulcer; [2],0
same,Grade Index V (number of animals; perforation),Pyloric Ligation Ulcer; [2],0
same,Grade Index 0 (number of animals),"Pyloric Ligation Ulcer; 200 mg/kg, N 4",4
same,Grade Index I (number of animals),"Pyloric Ligation Ulcer; 200 mg/kg, N 4",0
same,Grade Index II (number of animals),"Pyloric Ligation Ulcer; 200 mg/kg, N 4",0
same,Grade Index III (number of animals),"Pyloric Ligation Ulcer; 200 mg/kg, N 4",0
same,Grade Index IV (number of animals),"Pyloric Ligation Ulcer; 200 mg/kg, N 4",0
same,Grade Index V (number of animals; perforation),"Pyloric Ligation Ulcer; 200 mg/kg, N 4",0
same,Grade Index G.I. mean ± S.E.,"Pyloric Ligation Ulcer; 200 mg/kg, to the duodenum during pylorus ligation, 15 hours",0.0 ± 0.0
same,Inhibition (%) of ulcer index,Ethanol-Induced Ulcer; [3],82.6%
same,Ulcer Index Mean ± S.E. (mm),Ethanol-Induced Ulcer; [3],10.1 ± 5.9 mm
same,Inhibition (%) of ulcer index,Ethanol-Induced Ulcer; [4],97.6%
same,Ulcer Index Mean ± S.E. (mm),Ethanol-Induced Ulcer; [4],1.4 ± 1.0 mm
same,Inhibition (%) of ulcer index,Ethanol-Induced Ulcer; [5],90.4%
same,Ulcer Index Mean ± S.E. (mm),Ethanol-Induced Ulcer; [5],5.6 ± 2.9 mm
same,Inhibition (%) of ulcer index,Ethanol-Induced Ulcer; [6],97.8%
same,Ulcer Index Mean ± S.E. (mm),Ethanol-Induced Ulcer; [6],1.3 ± 1.0 mm
CCNC(=O)C(C)=CCCC(C)=CCCC(C)=CCCC(C)=CCCC(C)=O [Compound C],inhibition in vivo at 100 mg/kg,gastric acid secretion,63.2%
CC(=O)CCC=C(C)CCC=C(C)CCC=C(C)CCC=C(C)C(=O)N(C)C [Compound D],inhibition in vivo at 100 mg/kg,gastric acid secretion,52.6%
same,LD50,in vivo,> 5000 mg/kg
CC(=O)CCC=C(C)CCC=C(C)CCC=C(C)CCC=C(C)C(=O)N(CCO)CCO [Compound E],inhibition in vivo at 100 mg/kg,gastric acid secretion,52.2%
"CC(=O)CCC=C(C)CCC=C(C)CCC=C(C)CCC=C(C)C(=O)N1CCCC1 [Compound F, N-(2,6,10,14-tetramethyl-18-oxo-2,6,10,14-nonadecatetraenoyl)pyrrolidine]",inhibition in vivo at 100 mg/kg,gastric acid secretion,76.1%
same,Inhibition (%) of ulcer index,Ethanol-Induced Ulcer; [3],63.2%
same,Ulcer Index Mean ± S.E. (mm),Ethanol-Induced Ulcer; [3],21.4 ± 8.2 mm
same,Inhibition (%) of ulcer index,Ethanol-Induced Ulcer; [4],94.8%
same,Ulcer Index Mean ± S.E. (mm),Ethanol-Induced Ulcer; [4],3.0 ± 1.9 mm
same,Inhibition (%) of ulcer index,Ethanol-Induced Ulcer; [5],85.7%
same,Ulcer Index Mean ± S.E. (mm),Ethanol-Induced Ulcer; [5],8.3 ± 3.4 mm
same,Inhibition (%) of ulcer index,Ethanol-Induced Ulcer; [6],97.1%
same,Ulcer Index Mean ± S.E. (mm),Ethanol-Induced Ulcer; [6],1.7 ± 0.9 mm
same,LD50,in vivo,> 5000 mg/kg
CC(=O)CCC=C(C)CCC=C(C)CCC=C(C)CCC=C(C)C(=O)n1ccnc1 [Compound H],inhibition in vivo at 100 mg/kg,gastric acid secretion,49.1%
CC(=O)CCC=C(C)CCC=C(C)CCC=C(C)CCC=C(C)C(=O)N1CC=CC1 [Compound I],inhibition in vivo at 100 mg/kg,gastric acid secretion,43.9%
CC(=O)CCC=C(C)CCC=C(C)CCC=C(C)CCC=C(C)CNC(C)=O [Compound J],inhibition in vivo at 100 mg/kg,gastric acid secretion,53%
CCC(=O)NCC(C)=CCCC(C)=CCCC(C)=CCCC(C)=CCCC(C)=O [Compound K],inhibition in vivo at 100 mg/kg,gastric acid secretion,50.2%
CCN(CC(C)=CCCC(C)=CCCC(C)=CCCC(C)=CCCC(C)=O)C(C)=O [Compound L],inhibition in vivo at 100 mg/kg,gastric acid secretion,62.6%
CCOC(=O)C=C(C)CCC=C(C)CCC=C(C)CCC=C(C)C(=O)N(CC)CC [Compound M],inhibition in vivo at 100 mg/kg,gastric acid secretion,80.6%
"CC(C)[N+](C)(CCOC(=O)C1c2ccccc2Oc2ccccc21)C(C)C [Propantheline bromide, reference compound]",Grade Index 0 (number of animals),"Pyloric Ligation Ulcer; 30 mg/kg, N 10",8
same,Grade Index I (number of animals),"Pyloric Ligation Ulcer; 30 mg/kg, N 10",2
same,Grade Index II (number of animals),"Pyloric Ligation Ulcer; 30 mg/kg, N 10",0
same,Grade Index III (number of animals),"Pyloric Ligation Ulcer; 30 mg/kg, N 10",0
same,Grade Index IV (number of animals),"Pyloric Ligation Ulcer; 30 mg/kg, N 10",0
same,Grade Index V (number of animals; perforation),"Pyloric Ligation Ulcer; 30 mg/kg, N 10",0
same,Grade Index G.I. mean ± S.E.,"Pyloric Ligation Ulcer; 30 mg/kg, 15 hours after pylorus ligation",0.2 ± 0.1
